{"source": "patent US20050101530A1", "about": "“Cellular virus receptors and methods of use” (Topigen Pharmaceutique, Inc., priority 2001, published 2005)", "key": {"[1]": {"molecular_target": "human chemokine receptor CCR3 (human) (UniProt P51677)", "experiment": "cell-based or functional assay"}, "[2]": {"tested_on": "RSV A2", "experiment": "RSV plaque formation (infectivity) inhibition test in Hep-2 cell cultures", "assay_type": "cell-based, respiratory syncytial virus (RSV) A2 strain", "conditions": "Hep-2 cells", "procedure": "The A2 strain of RSV was purchased from ATCC. The RSV was inoculated into a sub-confluent Hep-2 cell monolayer. […] The contents of the flask was resuspended in 1 ml aliquots, quick-frozen with alcohol/dry ice, and stored at −80° C. The virus titer of RSV was assessed by quantitative plaque forming assay and maintained titers in the range of 10^6 to 10^8pfu/ml for more than 6 months at −70° C.\nHep2 cells are known for being a permissive target cell for RSV infection and these cells express several chemokine receptors. Serial rounds of infections were performed with Hep-2 cells at different MOIs, ranging from 1:5 to 1:0.1. Hep-2 cells were systematically infected at these ranges of MOI. Subsequent experimental infection of Hep-2 cells with RSV were realized at a MOI 1:0.1. We investigated the role of the chemokine receptor CCR3 in supporting RSV infection. Immunoprecipitation technique followed by analysis of the immunoprecipitated complexes by SDS-PAGE were performed in order to gain insight into the physical contact between the RSV-G protein and the CCR3 receptor. Immunoprecipitation of the immune complexes will allow to assess, using SDS-PAGE and a specific antibody for the RSV-G protein, whether or not the contact of the virus glycoprotein with the cell receptor occurred. […] We noticed here that although the monoclonal antibody to RSV-G protein was diluted to 1:5000, it still cross reacted with a determinant of 43-45 kDa in all non infected or control cell types used in this work (see FIG. 1 lane 2). However, keeping in mind that all cell extracts were normalized to the same quantity of proteins before being loaded into SDS-PAGE. Therefore, the high intensity of the band, recognized by anti-RSV-G, and corresponding to the RSV-G protein precursor allowed us to differentiate between real infection and the background due to cross reactivity. We assessed if the CCR3 receptor was involved in virus infectivity of epithelial cells by performing RSV infectivity inhibition tests as described above. […]"}, "[3]": {"molecular_target": "T1, RSV-G protein and CCR3 receptor (Homo sapiens, UniProt P51677)", "T1 construct": "physical contact between the CCR3 receptor and the RSV-G protein in Hep-2 cells; endogenous in cells; host or cells: Hep-2 epithelial cells (ATCC) infected with RSV A2 (ATCC)", "T1 sequence (P51677 1-355)": "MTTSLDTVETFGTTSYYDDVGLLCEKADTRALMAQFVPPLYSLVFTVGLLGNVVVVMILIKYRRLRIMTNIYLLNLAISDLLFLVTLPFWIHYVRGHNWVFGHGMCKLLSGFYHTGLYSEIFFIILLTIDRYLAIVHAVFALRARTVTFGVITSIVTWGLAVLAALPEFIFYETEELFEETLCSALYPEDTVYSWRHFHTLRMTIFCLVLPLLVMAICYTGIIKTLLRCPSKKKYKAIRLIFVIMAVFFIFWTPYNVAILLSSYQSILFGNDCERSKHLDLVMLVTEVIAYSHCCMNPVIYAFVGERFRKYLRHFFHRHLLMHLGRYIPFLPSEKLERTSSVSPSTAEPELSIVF", "experiment": "Anti-CCR3 immunoprecipitation and anti-RSV-G Western blot of RSV-infected Hep2 cells", "assay_type": "cell-based", "conditions": "Hep2 cells infected by RSV in the presence of 2 μg/ml of Eotaxin; FIG. 1 lane 3", "procedure": "(§1) A549, Hep2, or GHOST cells were infected by RSV A2 strain at different multiplicity of infection (MOI). The results presented in this work were performed at a MOI of 1:0.1. The MOI 1:0.1 is the cut off of permissive and restrictive infection. The cells expressing the chemokine receptor CCR3 (Ghost-CCR3+, Hep2 and A549) were found permissive at a MOI 1:0.1 and the chemokine receptor CCR3 is considered as the high affinity coreceptor for RSV infection. Infection experiments undertaken with GHOST cells expressing only one of the following chemokine receptors the CCR1, CCR2b, CCR4, CCR5, CCR8 or CXCR4, were performed at a MOI of 1:2. These GHOST cells (CCR1, CCR-2b, CCR-4, CCR-5, CCR-8 and CXCR4), were not infected at a MOls of 1:0.1 and 1:1. The chemokine receptors CCR1, CCR2, CCR4, CCR5, CCR8 were considered subsequently as low affinity coreceptors in regard to RSV infection. […] These cells were not infected by RSV at a MOI 1:5 and lesser (1:4, 1:3, 1:2, 1:1 and 1:0.1).\nCells were infected by RSV for 2 hr incubation in the presence or the absence of 2 μg/ml of Eotaxin, or of PBS solution and cultured for 3 days. […]\nHep2 cells are known for being a permissive target cell for RSV infection and these cells express several chemokine receptors. […] However, keeping in mind that all cell extracts were normalized to the same quantity of proteins before being loaded into SDS-PAGE. […]"}, "[4]": {"tested_on": "RSV", "experiment": "RSV infection of CCR3 transfected GHOST cells, immunostaining", "assay_type": "cell-based, respiratory syncytial virus (RSV) A2 strain", "conditions": "Eotaxin 1 μg/ml, anti-RSV F-protein immunostaining, FIG. 3B", "procedure": "as §1\nWe have also assessed whether CCR3 transfected GHOST cells support RSV infection and produce infectious virus. We performed this by using the same methods as described in FIG. 3. […]\nAfter fixing the cells in 4% paraformaldehyde in phosphate buffered saline (PBS), the presence of virus was detected by immunostaining. […]"}}}
{"substance": "Rat anti-human CCR3 (clone 61828.111) (antibody)", "values": [{"measurement": "decrease in RSV infection of CCR3+ GHOST cells, immunostaining", "setting": "[1]", "value": 80, "unit": "%"}]}
{"substance": "Eotaxin (from UniProt P51671 24-97) (ligand)", "values": [{"measurement": "percent inhibition of virus plaques formation (RSV A2 on Hep-2 cells)", "setting": "[1]", "value": 80, "unit": "%"}]}
{"substance": "Eotaxin", "values": [{"measurement": "percent inhibition of virus plaques formation", "setting": "[2]; Eotaxin greater or equal to 0.5 μg/ml, compared to PBS-treated cultures, three days post infection", "value": 80, "unit": "%"}, {"measurement": "RSV plaques as compared with PBS controls", "setting": "[2]; each concentration of Eotaxin tested (0.01 to 1.0 μg/ml), p<0.05, Student's t-test", "value": "statistically fewer RSV plaques"}, {"measurement": "timing of inhibition of RSV infection (FIG. 2)", "setting": "[2]; eotaxin added to culture medium, during virus adsorption", "value": "inhibited RSV infection most effectively early in infection"}, {"measurement": "detection of RSV-G protein by RSV-G mAb in anti-CCR3 immunoprecipitated extracts", "setting": "[3]", "value": "failed to recognize the RSV-G protein"}, {"measurement": "RSV infection of GHOST/CCR3 cells by immunostaining", "setting": "[4]", "value": "inhibits infection by RSV"}, {"measurement": "RSV infection of GHOST/CCR3 cells by immunostaining", "setting": "[4]; listed as eotaxin", "value": "inhibits cellular infection by RSV"}]}
